Results: patent US6036941A, “Fluorogenic substrates for diagnosis and photodynamic treatment of tumors” (Consiglio Nazionale Delle Ricerche, priority 1995, dated 2000)

Key:
[1] = system: POGB cells (bronchial microcytoma); assay: Photosensitizer accumulation in drug-resistant versus sensitive POGB cells; assay type: cell-based, human; conditions: Rose Bengal acetate 5×10^-5 to 10^-7 M, Photofrin 10^-5 M, fluorescence intensity
Experimental: (§1) Tests were also performed on cell lines derived from human tumours: POGB, from bronchial microcytoma, and IGROV, from ovarian carcinoma. In particular, for each line a comparison was made between the cells sensitive and resistant to chemotherapeutic agents. […] Results related to Rose Bengal treatment were compared with those obtained with Photofrin®, a well-establishes photosensitizer.
(§2) The cells were treated with Rose Bengal acetate at doses between 5×10^-5 and 10^-7 M, and with 10^-5 M Photofrin®. The intracellular accumulation of photosensitizer was evaluated in terms of fluorescence intensity. Giving a value of 100 to the photosensitizer amount present in each sensitive cell line, the amount of photosensitizer retained in the corresponding resistant cell line is 100% and 85% for Photofrin and 170% and 120% for Rose Bengal, in IGROV and POGB respectively. A more evident difference of the accumulation capacity between Photofrin and Rose Bengal can be observed in the case of B16 cells, a line derived from mouse melanoma. In this case the amount of Photofrin® accumulated in resistant cells is about 65% of that in sensitive ones, while the amount of Rose Bengal is about 120%.

[2] = system: B16 cells (mouse melanoma); assay: Photosensitizer accumulation in drug-resistant versus sensitive B16 cells; assay type: cell-based
Experimental: as §2

[3] = system: normal fibroblast line and sarcoma-derived cell line of Galliera rats; assay: Intracellular drug accumulation, normal fibroblasts versus sarcoma-derived cells; assay type: cell-based, rat
Experimental: A comparison of intracellular drug accumulation was made between normal and tumour cells. As a model, a normal fibroblast line from embryos (6-10 days) of Galliera strain rats, and a stabilised cell line derived from sarcoma spontaneously growing in syngeneic Galliera rats, were used. After incubation with Rose Bengal acetate at a concentration of 5×10^-6 M for 2 hours, a ratio of intracellular photosensitizer concentration of about 16 was measured between normal and transformed cells, in terms of fluorescence intensity at 580 nm. The ratio of the esterase activity in the two cell lines was found less than the ratio shown by the photosensitizer: this can be explained by the fact that the Rose Bengal produced by the enzyme activity is a polar compound. It must be considered that in this form Rose Bengal requires an active transport mechanism to be released (E. Prosperi, A. C. Croce et al. Cytometry, 7, 70-75, 1986), and that the tumour cells are characterised by an impaired metabolic condition (J. Szollosi, P. Kertai et al. J. Histochem. Cytochem. 29, 503-510, 1982), that enhances the photosensitizer accumulation.
The same cell lines, treated with the most commonly used photosensitizer, Photofrin®, at the concentration of 2×10^-5 M for a time of 2 hours yielded a ratio value of about 8 (FIG. 6).

[4] = system: IGROV cells (ovarian carcinoma); assay: Photosensitizer accumulation in drug-resistant versus sensitive IGROV cells; assay type: cell-based, human; conditions: Rose Bengal acetate 5×10^-5 to 10^-7 M, Photofrin 10^-5 M, fluorescence intensity
Experimental: as §1, §2

[5] = system: rat glioma (C6) cells; assay: Cellular vitality tests (trypan blue and fluorescein diacetate methods); assay type: cell-based; conditions: incubation for 4 h at concentrations up to 1×10^-4 M, no irradiation
Excerpt: The hydrophobicity of the intracellular environment would therefore seem to create the structural condition that favours the action of the enzyme. […] The finding relative to Rose Bengal agrees with the literature (R. P. G. Feenstra and S. C. G. Tseng, Ophthalmology, 99 605, 1992).

[6] = system: rat glioma (C6) cells; assay: Phototoxicity after irradiation at 540±5 nm, cell count 24 h later; assay type: cell-based; conditions: 2 mw/cm^2, up to 2.4 J, compared with Rose Bengal (FIG. 5)
Excerpt: The cells treated with Rose Bengal or with Rose Bengal acetate as described above were submitted to irradiation at 540±5 nm by a Xe 75 W lamp and an interference filter.
Irradiation was realised with a power of 2 mw/cm^2 for various times until the administration of a maximum dose of 2.4 J, in accordance with the protocols normally used in tests of phototoxicity. The irradiation was effected in HBSS buffer (Hank's Balanced Salt Solution, J. H. Hanks and R. E. Wallace, Proc. Natl. Exp. Biol. Med 71, 196, 1949) in the absence of the drug in the culture medium to avoid secondary effects. Twenty-four hours after irradiation the cells adhering to the slide on which they had been grown were counted. The expression of phototoxicity was defined as the ratio between the number of cells present after the treatment and those counted on the untreated controls. […] This effect relates directly to the quantity of fluorescent substance with photosensitisation activity produced by the enzyme activity, evaluated as fluorescence intensity at 580 nm (FIG. 4).

[7] = system: purified esterase enzyme of pig liver; assay: Enzyme hydrolysis by purified pig liver esterase, followed fluorometrically; assay type: biochemical; conditions: hydrolysis in solution, phosphate buffer 0.2 M pH 6.85, 20° C., esterase 25 U/ml; read-out: enzyme hydrolysis constant Km
Experimental: To the solution of Rose Bengal acetate 3×10^-5 M in phosphate buffer 0.2 M (pH 6.85) was added the purified esterase enzyme of pig liver (Sigma Chem, Co., GB) at the final concentration of 25 U/ml. The reaction was performed at room temperature (20° C.) and the formation of the product was measured fluorometrically (excitation 525 nm, emission 565 nm). In a second group of experiments, to the reaction solution was added human albumin (Sigma Chem. Co, GB) at the concentration of 0.1 mg/ml, better to simulate the conditions of hydrophobicity to be met in the cells. In these conditions, the appearance of the fluorescence was accelerated.
The kinetics of hydrolysis was followed by determining the intensity of fluorescence at 565 nm corresponding to the peak of emission of Rose Bengal. Examples of curves of hydrolysis kinetics are shown in FIG. 3 in which the curve (a) represents the intensity of fluorescence in time of a solution of Rose Bengal acetate subjected to hydrolysis in the presence of albumin with esterase, and the curve (b) represent the intensity of fluorescence of the solution of Rose Bengal acetate with albumin, in the absence of esterase, at the concentration of 3×10^-5 M.

[8] = Rose Bengal in blood samples of treated mice; assay type: in vivo; conditions: Swiss mice treated with 8 mg/kg
Experimental: Considering the possible systemic use of Rose Bengal acetate, the effect was evaluated of the serum esterase activity on the hydrolysis kinetics of the fluorogenic substrate. The esterase activity of the blood can induce an extracellular hydrolysis of Rose Bengal acetate. The kinetics, however, of this hydrolysis is slow enough to permit the cellular compartment to accumulate and hydrolyse the Rose Bengal acetate according to the intracellular esterase activity. In any case the hydrolysed Rose Bengal is quickly eliminated from the blood.

[9] = system: lymphocytes and granulocytes; assay: Hydrolysis activity in white blood cells on smears; assay type: cell-based
[10] = system: rat glioma (C6) cells; assay: Intracellular accumulation and hydrolysis kinetics in C6 cell cultures; assay type: cell-based
Experimental: Evaluations of the kinetics of intracellular accumulation of Rose Bengal acetate were performed on cultures of an established cell line of rat glioma (C6) which grows as a monolayer. This cell line is widely used for pharmaco-kinetic studies of fluorescent substances with photosensitisation activity by virtue of its rapid proliferation activity and the possibility of modifying the physiological activities of the cells.
It is particularly important that, principally in short-term treatments, a continuous increase of intracellular Rose Bengal is recorded in the cells treated with the acetylated species, even when the cells are transferred into a medium devoid of this substance. This can easily be interpreted in terms of the balance between the processes of incorporation and hydrolysis. Since the process of incorporation is rapider than that of hydrolysis, inside the cells an accumulation is created of hydrolysable substance on which the enzyme can continue to effect its action through time.
Further, it is interesting to note that the kinetics of hydrolysis of Rose Bengal acetate is accelerated by the cellular environment: the Km passes from about 10^-3 M in conditions of hydrolysis in solution to about 10^-6 M in the cells.

Compound	amount of photosensitizer retained in resistant cell line (sensitive line = 100) [1]	amount accumulated in resistant cells relative to sensitive ones [2]	ratio of intracellular photosensitizer concentration between normal and transformed cells ([3]; 2×10^-5 M for 2 hours)	amount of photosensitizer retained in resistant cell line (sensitive line = 100) [4]	cell mortality [5]	phototoxicity (cell survival) [6]	Km [7]	Rose Bengal in the blood [8]	ratio of intracellular photosensitizer concentration between normal and transformed cells ([3]; 2 h, 5 µM)	hydrolysis activity in lymphocytes, less than in granulocytes [9]	Km [10]
Photofrin® [reference compound]	85%	about 65%	about 8	100%	–	–	–	–	–	–	–
O=C(O)c1c(Cl)c(Cl)c(Cl)c(Cl)c1-c1c2cc(I)c(=O)c(I)c-2oc2c(I)c(O)c(I)cc12 [Rose Bengal, reference compound]	–	–	–	–	no significant cell mortality	–	–	–	–	–	–
CC(=O)Oc1c(I)cc2c(-c3c(Cl)c(Cl)c(Cl)c(Cl)c3C(=O)O)c3cc(I)c(=O)c(I)c-3oc2c1I [Rose Bengal acetate]	120%	about 120%	–	170%	no significant cell mortality	strong phototoxic effect	~1000 µM	do not present appreciable quantities	about 16	40%	~1 µM
CC(=O)Oc1ccc2c(c1)Oc1cc(OC(C)=O)ccc1C21OC(=O)c2ccccc21 [diacetate fluorescein, reference compound]	–	–	–	–	–	–	5 µM	–	–	–	–
